Measured values from the NIST ThermoML archive (doi:10.1021/acs.jced.8b00554).

Assay: xn = mol fraction of the nth substance listed
Conditions: Liquid, Vibrating tube method

CCCCCCCCCC [decane] + CCCO
mass density [kg/m3]
Conditions | 323.15 K | 333.15 K
100 kPa, x2 = 0.1391 | – | 698
100 kPa, x2 = 0.1907 | – | 699.22
100 kPa, x2 = 0.3001 | – | 702.36
100 kPa, x2 = 0.4326 | – | 706.94
100 kPa, x2 = 0.6863 | – | 723.34
100 kPa, x2 = 0.8711 | – | 744.53
1000 kPa, x2 = 0.8711 | – | 745.47
1010 kPa, x2 = 0.3001 | – | 703.4
1010 kPa, x2 = 0.4326 | – | 708.03
1010 kPa, x2 = 0.6863 | – | 724.38
1020 kPa, x2 = 0.1391 | – | 699.13
1020 kPa, x2 = 0.1907 | – | 700.31
2000 kPa, x2 = 0.1391 | – | 700.15
2000 kPa, x2 = 0.1907 | – | 701.33
2000 kPa, x2 = 0.6863 | – | 725.39
2010 kPa, x2 = 0.4326 | – | 709.06
2020 kPa, x2 = 0.3001 | – | 704.44
2020 kPa, x2 = 0.8711 | – | 746.44
3000 kPa, x2 = 0.3001 | – | 705.44
3010 kPa, x2 = 0.1391 | – | 701.15
3010 kPa, x2 = 0.1907 | – | 702.33
3010 kPa, x2 = 0.4326 | – | 710.06
3010 kPa, x2 = 0.6863 | – | 726.41
3010 kPa, x2 = 0.8711 | – | 747.43
4000 kPa, x2 = 0.1391 | – | 702.13
4000 kPa, x2 = 0.1907 | – | 703.34
4010 kPa, x2 = 0.4326 | – | 711.1
4010 kPa, x2 = 0.8711 | – | 748.4
4020 kPa, x2 = 0.3001 | – | 706.45
4020 kPa, x2 = 0.6863 | – | 727.43
5000 kPa, x2 = 0.1907 | – | 704.33
5000 kPa, x2 = 0.3001 | – | 707.44
5010 kPa, x2 = 0.1391 | – | 703.13
5010 kPa, x2 = 0.6863 | – | 728.46
5020 kPa, x2 = 0.4326 | – | 712.1
5020 kPa, x2 = 0.8711 | – | 749.4
6000 kPa, x2 = 0.1391 | – | 704.1
6000 kPa, x2 = 0.1907 | – | 705.29
6000 kPa, x2 = 0.3001 | – | 708.43
6010 kPa, x2 = 0.4326 | – | 713.11
6010 kPa, x2 = 0.6863 | – | 729.45
6020 kPa, x2 = 0.8711 | – | 750.38
7000 kPa, x2 = 0.1391 | – | 705.07
7000 kPa, x2 = 0.4326 | – | 714.11
7000 kPa, x2 = 0.8711 | – | 751.38
7010 kPa, x2 = 0.3001 | – | 709.43
7020 kPa, x2 = 0.1907 | – | 706.27
7020 kPa, x2 = 0.6863 | – | 730.46
8000 kPa, x2 = 0.1391 | – | 706.06
8000 kPa, x2 = 0.4326 | – | 715.11
8010 kPa, x2 = 0.1907 | – | 707.25
8010 kPa, x2 = 0.6863 | – | 731.46
8020 kPa, x2 = 0.3001 | – | 710.42
8020 kPa, x2 = 0.8711 | – | 752.35
9010 kPa, x2 = 0.1391 | – | 707
9010 kPa, x2 = 0.1907 | – | 708.23
9010 kPa, x2 = 0.3001 | – | 711.39
9010 kPa, x2 = 0.4326 | – | 716.11
9010 kPa, x2 = 0.6863 | – | 732.47
9010 kPa, x2 = 0.8711 | – | 753.31
10000 kPa, x2 = 0.1391 | – | 707.95
10000 kPa, x2 = 0.4326 | 726.96 | 717.1
10010 kPa, x2 = 0.3001 | – | 712.39
10010 kPa, x2 = 0.6863 | 743.54 | 733.45
10020 kPa, x2 = 0.1907 | – | 709.15
10020 kPa, x2 = 0.8711 | 764.05 | 754.28
11000 kPa, x2 = 0.1391 | 717.57 | –
11000 kPa, x2 = 0.1907 | 719.05 | 710.11
11010 kPa, x2 = 0.1391 | – | 708.9
11010 kPa, x2 = 0.3001 | 723.06 | –
11010 kPa, x2 = 0.4326 | 727.85 | –
11010 kPa, x2 = 0.6863 | 744.43 | 734.43
11020 kPa, x2 = 0.3001 | – | 713.35
11020 kPa, x2 = 0.4326 | – | 718.06
11020 kPa, x2 = 0.8711 | 764.93 | 755.24
12000 kPa, x2 = 0.1907 | – | 711.08
12000 kPa, x2 = 0.3001 | 723.94 | –
12000 kPa, x2 = 0.4326 | – | 719.03
12010 kPa, x2 = 0.1391 | 718.43 | 709.82
12010 kPa, x2 = 0.6863 | 745.32 | 735.38
12020 kPa, x2 = 0.1907 | 719.94 | –
12020 kPa, x2 = 0.3001 | – | 714.31
12020 kPa, x2 = 0.4326 | 728.74 | –
12020 kPa, x2 = 0.8711 | 765.79 | 756.17
13000 kPa, x2 = 0.1391 | 719.28 | –
13000 kPa, x2 = 0.8711 | – | 757.09
13010 kPa, x2 = 0.1391 | – | 710.75
13010 kPa, x2 = 0.1907 | 720.8 | 712
13010 kPa, x2 = 0.3001 | 724.81 | –
13010 kPa, x2 = 0.4326 | – | 719.98
13010 kPa, x2 = 0.6863 | 746.21 | 736.35
13020 kPa, x2 = 0.3001 | – | 715.25
13020 kPa, x2 = 0.4326 | 729.62 | –
13020 kPa, x2 = 0.8711 | 766.65 | –
14000 kPa, x2 = 0.1907 | – | 712.92
14000 kPa, x2 = 0.3001 | 725.66 | –
14000 kPa, x2 = 0.4326 | 730.47 | –
14000 kPa, x2 = 0.6863 | 747.08 | –
14000 kPa, x2 = 0.8711 | – | 758.02
14010 kPa, x2 = 0.1391 | 720.12 | 711.65
14010 kPa, x2 = 0.3001 | – | 716.18
14020 kPa, x2 = 0.1907 | 721.64 | –
14020 kPa, x2 = 0.4326 | – | 720.92
14020 kPa, x2 = 0.6863 | – | 737.27
14020 kPa, x2 = 0.8711 | 767.51 | –
15000 kPa, x2 = 0.4326 | 731.33 | –
15000 kPa, x2 = 0.6863 | 747.92 | –
15000 kPa, x2 = 0.8711 | 768.36 | –
15010 kPa, x2 = 0.1391 | 720.95 | 712.53
15010 kPa, x2 = 0.1907 | – | 713.82
15010 kPa, x2 = 0.3001 | 726.5 | –
15010 kPa, x2 = 0.4326 | – | 721.82
15010 kPa, x2 = 0.6863 | – | 738.18
15010 kPa, x2 = 0.8711 | – | 758.93
15020 kPa, x2 = 0.1907 | 722.47 | –
15020 kPa, x2 = 0.3001 | – | 717.1
16000 kPa, x2 = 0.1907 | 723.29 | –
16000 kPa, x2 = 0.6863 | 748.78 | –
16000 kPa, x2 = 0.8711 | 769.18 | –
16010 kPa, x2 = 0.1391 | 721.76 | 713.4
16010 kPa, x2 = 0.1907 | – | 714.7
16010 kPa, x2 = 0.3001 | 727.33 | 717.99
16010 kPa, x2 = 0.4326 | 732.15 | 722.73
16010 kPa, x2 = 0.6863 | – | 739.1
16020 kPa, x2 = 0.8711 | – | 759.81
17000 kPa, x2 = 0.1391 | 722.56 | –
17000 kPa, x2 = 0.6863 | 749.59 | 740
17000 kPa, x2 = 0.8711 | – | 760.7
17010 kPa, x2 = 0.1907 | 724.12 | –
17010 kPa, x2 = 0.3001 | – | 718.88
17010 kPa, x2 = 0.4326 | 732.96 | 723.6
17010 kPa, x2 = 0.8711 | 770.01 | –
17020 kPa, x2 = 0.1391 | – | 714.27
17020 kPa, x2 = 0.1907 | – | 715.58
17020 kPa, x2 = 0.3001 | 728.15 | –
18000 kPa, x2 = 0.1391 | – | 715.12
18000 kPa, x2 = 0.1907 | – | 716.42
18000 kPa, x2 = 0.3001 | – | 719.72
18000 kPa, x2 = 0.4326 | – | 724.49
18000 kPa, x2 = 0.6863 | – | 740.88
18010 kPa, x2 = 0.1391 | 723.35 | –
18010 kPa, x2 = 0.3001 | 728.94 | –
18010 kPa, x2 = 0.4326 | 733.77 | –
18010 kPa, x2 = 0.6863 | 750.41 | –
18010 kPa, x2 = 0.8711 | 770.81 | –
18020 kPa, x2 = 0.1907 | 724.91 | –
18020 kPa, x2 = 0.8711 | – | 761.56
19000 kPa, x2 = 0.4326 | 734.57 | –
19010 kPa, x2 = 0.1391 | – | 715.93
19010 kPa, x2 = 0.1907 | 725.67 | 717.24
19010 kPa, x2 = 0.3001 | 729.72 | –
19010 kPa, x2 = 0.4326 | – | 725.32
19010 kPa, x2 = 0.6863 | 751.21 | 741.72
19010 kPa, x2 = 0.8711 | 771.61 | –
19020 kPa, x2 = 0.1391 | 724.11 | –
19020 kPa, x2 = 0.3001 | – | 720.57
19020 kPa, x2 = 0.8711 | – | 762.39
20000 kPa, x2 = 0.3001 | – | 721.37
20010 kPa, x2 = 0.1391 | 724.85 | –
20010 kPa, x2 = 0.1907 | 726.42 | 718.03
20010 kPa, x2 = 0.4326 | 735.37 | –
20010 kPa, x2 = 0.6863 | – | 742.58
20010 kPa, x2 = 0.8711 | 772.39 | 763.23
20020 kPa, x2 = 0.1391 | – | 716.72
20020 kPa, x2 = 0.3001 | 730.47 | –
20020 kPa, x2 = 0.4326 | – | 726.17
20020 kPa, x2 = 0.6863 | 752 | –
